The record followed here is PMC11065314, “Identification of compounds that cause axonal dieback without cytotoxicity in dorsal root ganglia explants and intervertebral disc cells with potential to treat pain via denervation” (PLOS ONE, 2024).

Values joined by “and” are separate entries in the source; they are usually repeats but may differ in a detail not shown here. Equal entries are not always repeated. Structures can show the parent of a compound that is named as a salt.

Data set [1] can be described thus: Quantification of viable NP cells (LIVE/DEAD staining). The format is cell-based, human. To be noted: both sexes, human, human nucleus pulposus (NP) cells; 10 to 500 nM, day 3 post-treat; read-out: Percentage of viable cells. Here is the method: (§1) Nucleus pulposus (NP) cells are native matrix-producing cells at the core of intervertebral discs. To repurpose axonal dieback compounds to denervate aberrant nerve fibers in discs related to chronic LBP, the cytocompatibility of these compounds with NP cells must be evaluated. Human NP cells (Sciencell, 4800) from donor 1 (Lot #5954) and donor 2 (Lot# 21579) were cultured according to previously established protocol in our lab adapted from manufacturer’s instructions. Briefly, passage three cells from both donors were expanded in Poly-L-lysine (PLL) (Sciencell, 413) coated T75 flasks. Cells were then lifted and reseeded at 5,000 cells/cm^2 onto two PLL-coated 48-well plates (Greiner Bio-One, 677180) and allowed to attach overnight before treating with Pyr or Vcr. One plate was used for LIVE/DEAD staining and the other plate was used for AlamarBlue assay as described below. Complete NP cell media (Sciencell, 4801) containing basal media supplemented with 1% penicillin-streptomycin, 1% growth supplement and 2% FBS were used for maintaining cells in culture. To mimic the hypoxic disc environment, NP cells were cultured in a hypoxia chamber (Stem Cell Technologies, 27310) with 5% CO2, 3.5% O2, 91.5% N2 (Airgas) during the entire culture and treatment incubation period.
(§2) Pyr stock solution was diluted in complete NP media to achieve final concentrations of 500 μM, 1 mM and 2 mM Pyr. 16.9 μg/mL and 169 μg/mL Vcr stock solutions were prepared in 1X PBS then diluted in complete NP media to achieve final concentrations of 10, 25, 50, 100 nM and 200, 500 nM, respectively. Cells were incubated with 250 μL of final treatment solutions in duplicate wells per donor for three days. Cells in negative control group were incubated with 250 μL of complete NP media with 0.55% v/v 1X PBS as solvent control. On day 3 post-treatment, brightfield images at 4X magnification were taken using a BioTek Cytation1 Plate Imager (Agilent) to verify cell proliferation and observe cell morphology. Three experimental replicates were performed for each cell donor.
(§3) On day 3 of incubation with drug, media treatment solutions were removed from each well and cells were carefully rinsed with 200 μL of sterile 1X PBS to remove excess media. NP cells were stained with 150 μL of 2 μM Calcein AM and 6 μM EtHD-1 solution from LIVE/DEAD Viability/Cytotoxicity Kit (Thermo Fisher Scientific, L3224) for 30 minutes at room temperature protected from light. After staining, cells were gently rinsed with 200 μL sterile 1X PBS to remove excess staining solution. Excitation and emission wavelengths for live cell fluorescence is 495 and 515 nm and dead cell fluorescence is 495 and 635 nm. Using a BioTek Cytation1 Plate Imager (Agilent), GFP filter cube (Agilent, 1225101, ex: 451.5–486.5 nm, em: 505.5–544.5 nm) and RFP filter cubes (Agilent, 1225103, ex: 511-551nm, em: 573–613 nm), fluorescent images at 4X magnification of four regions per well were taken. Gen5 v3.11 software (Agilent) was used to count green (live) and orange (dead) cells in fluorescent images. Dead NP cell staining was verified and evident by positive EtHD-1 orange staining in kill control wells where cells were treated with 70% EtOH for 10 minutes (S4 Fig). Percentage of live cells were calculated by calculating the percentage of live cells over total cell counts as shown in Eq 3.
(§4) Cellviability(%)=Livecellcounts/Livecellcounts+Deadcellcounts×100% (3)

Data set [2] has as its system Human NP cells. The description is as above. The format is cell-based. How it is done:
as §1, §2, §3, §4

As to `CC[C@]1(O)C[C@H]2CN(CCc3c([nH]c4ccccc34)[C@@](C(=O)OC)(c3cc4c(cc3OC)N(C=O)[C@H]3[C@@](O)(C(=O)OC)[C@H](OC(C)=O)[C@]5(CC)C=CCN6CC[C@]43[C@@H]65)C2)C1` [Vcr, vincristine sulfate], in data set [1], the viability at 3 days is > 81%. Moreover, the “Percent live (%)” value is 90.3134% and 98.5594% and 99.6198% and 83.3102% and 99.7603% and 99.2074% in data set [2] (10 nM, donor 1, day 3, single wells (Exp, Rep)); 89.2996% and 89.1566% and 99.4877% and 99.866% and 98.4016% and 98.5294% in data set [2] (25 nM, donor 1, day 3, single wells (Exp, Rep)); 97.6127% and 96.3918% and 89.1374% and 87.5648% and 97.9899% and 92.8571% in data set [2] (25 nM, donor 2, day 3, single wells (Exp, Rep)); 99.536% and 94.3223% and 95.1923% and 99.2108% and 99.6933% and 99.3363% in data set [2] (50 nM, donor 1, day 3, single wells (Exp, Rep)); 98.5163% and 97.4555% and 94.0054% and 88.1057% and 96.8127% and 94.0758% in data set [2] (50 nM, donor 2, day 3, single wells (Exp, Rep)); 98.9571% and 99.7976% and 95.6589% and 96.3247% and 98.866% and 99.2797% in data set [2] (100 nM, donor 1, day 3, single wells (Exp, Rep)). In addition, the “Percent live (%)” value is 99.5495% and 99.5885% and 95.3125% and 93.5614% and 98.018% and 96.1078% in data set [2] (100 nM, donor 2, day 3, single wells (Exp, Rep)); 96.7883% and 99.5461% and 93.2203% and 99.7674% and 98.7402% and 97.893% in data set [2] (200 nM, donor 1, day 3, single wells (Exp, Rep)); 98.9101% and 97.7221% and 91.7808% and 91.6988% and 97.8182% and 96.8701% in data set [2] (200 nM, donor 2, day 3, single wells (Exp, Rep)); 99.2% and 97.9245% and 96.5986% and 97.28% and 92.5651% and 91.0506% in data set [2] (500 nM, donor 1, day 3, single wells (Exp, Rep)).
